Consider one compound from patent publication US20050180922A1, “Block co-polymer worm micelles and methods of use therefor” (priority 2004, published 2005).

A short description of data set [1]: Taxol loading into worm micelle core (HPLC). It is filed as physicochemical. The following applies: confirmed by HPLC. On the procedure:
In vitro assays. Drug delivery with liposomes entails loading either hydrophilic drugs or nucleic acids into the interior of the assembly (Wagner et al., Proc. Nat'l Acad. Sci. USA 89:7934 (1992)), or hydrophobic drugs into the lipid bilayer (Wenk et al., J. Pharm. Sci. 85:228 (1996)). The worm micelles in this study were loaded with the drug taxol, one of a variety of hydrophobic drugs available for killing tumor cells. Taxol binds to, and toxically stabilizes, microtubules at 1-10 nM (Gloushankova et al., Proc. Nat'l. Acad. Sci. USA 91:8597 (1994)).

Data set [2] deals with microtubules. Conditions: cited from earlier work.

`CC(=O)O[C@H]1C(=O)[C@@]2(C)[C@H]([C@H](OC(=O)c3ccccc3)[C@]3(O)C[C@H](OC(=O)[C@H](O)[C@@H](NC(=O)c4ccccc4)c4ccccc4)C(C)=C1C3(C)C)[C@]1(OC(C)=O)CO[C@@H]1C[C@@H]2O` [taxol, paclitaxel]: the “taxol partition into hydrophobic core” value in data set [1] is recorded as “one molecule of taxol partitions into the hydrophobic core per ten copolymers”. Moreover, the “concentration that binds and toxically stabilizes microtubules” value in data set [2] is 1 to 10 nM.
